Tested on: pain and/or inflammation in volunteers
Assay: Tests on various subjects using Composition 2 (pain and/or inflammation)
Assay type: in vivo
Conditions: past medication of volunteers; testimony
Description: Composition 2 was tested on several subjects so as to verify its activity as anti-inflammatory agent and/or analgesic. As it can be seen from Table 1, test subjects having various inflammations or pain have been treated with Composition 2. In each case, a small amount of Composition 2, in the form of a cream, was applied to inflamed skin area by means of a short gentle rub.

Compound: CC(=O)Oc1ccccc1C(=O)O [Aspirin, acetylsalicylic acid]
- gastric side effect reported by volunteers: severe gastric burning sensation

Source: patent US20100137248A1, “BORON-CONTAINING COMPOUNDS, USES AND PREPARATION THEREOF” (DINOTEC INC., priority 2007, published 2010)
